From patent US12544575B2, “Bioelectric neuromodulation for hematopoiesis regulation during chemotherapy” (THE REGENTS OF THE UNIVERSITY OF CALIFORNIA, priority 2020, dated 2026)

What was measured:
Assay type in all cases: in vivo, rat
SD rats [1] = assay: Survival of rats after two cycles of carboplatin chemotherapy; conditions: after two cycles of carboplatin over a period of 60 days; carboplatin 60 mg/kg intraperitoneally on day 0, ES or G-CSF on day 2
Description: (§1) In FIG. 7A is seen white blood cell concentration for each of the five groups of rats which were tested over two cycles of testing. Male SD rats (weighing 350 to 400 g) were used for studying chemotherapy-induced cytopenia. The rats were divided into five experimental groups: control group; electrical stimulation group; carboplatin group; carboplatin+electrical stimulation (ES) group; and carboplatin+G-CSF group.
(§2) For each cycle of treatment, a single dose of carboplatin (e.g., 60 mg/kg) or vehicle (saline) was injected intraperitoneally on day 0. On day 2, electrical autonomic nerve stimulation was performed for a specified period (e.g., 60 minutes), or a single dose of G-CSF was administered on the rats according to the different experimental groups. In the example treatment each cycle of treatment is considered to be 28 days, however, a treatment cycle could span from one to eight weeks.
FIG. 10 illustrates an example embodiment 590 of results indicating survival rates of the rats in the same five groups (control, ES, carboplatin, carboplatin+ES, and carboplatin+G-CSF) as previously described after two cycles of carboplatin over a period of 60 days.

SD rats [2] = assay: Chemotherapy-induced cytopenia, complete blood count of peripheral blood
Description: as §1, §2
Blood samples for complete blood count (CBC) were collected in EDTA tubes on various days (day 0, 2, 7, 10, 14, 17, 21, and 28).

bone marrow of SD rats = assay: Immunofluorescence staining of the bone marrow microenvironment (nestin, TH, CD31)
Description: The testing utilized immunofluorescence staining of nestin for mesenchymal stem cell, tyrosine hydroxylase (TH+) for sympathetic nerve, and CD31 for vascular to evaluate the alteration of bone marrow microenvironment after […] of carboplatin.
After two cycles of chemotherapy, exemplified as using carboplatin with different dosages of 40 mg/kg and 60 mg/kg, the bone marrow of the rats from the five experimental groups was analyzed by immunofluorescence to evaluate the alteration of the bone marrow microenvironment. The bone marrow tissue of rats was stained with nestin, TH and anti-CD31 antibody for mesenchymal stem cell, sympathetic nerve and endothelial cell, respectively.

[3] = after three cycles of carboplatin
[4] = after two cycles of carboplatin, 40 mg/kg and 60 mg/kg

Q: Which results are given for N.N.O=C([O-])C1(C(=O)[O-])CCC1.[Pt+2] [carboplatin]?
A: survival rate (SD rats [1]): 37.5%; concentration of hemoglobin (SD rats [2]; after carboplatin administration, whether rescue by electrical stimulation or G-CSF): significantly decreased; platelet count compared to the control group (SD rats [2]; day 10 of the first and second cycle): significantly reduced; area of TH+/CD31 by immunofluorescence staining versus control group (bone marrow of SD rats; [3]): lower levels; expression of TH+ in the sympathetic nerve (bone marrow of SD rats; [3]): reduced expression; expression of nestin (mesenchymal stem cell) in comparison to the control group (bone marrow of SD rats; [3]): more extensive expression; area of the sympathetic nerve along with arteriole compared to the control group (bone marrow of SD rats; [4]): significantly decreased; mesenchymal stem cells compared to the control group (bone marrow of SD rats; [4]): increased
